Entries after “also recorded” stand apart in the source; their conditions may differ.

Data set [1] deals with LPS-induced septic mice. Kind of data set: spleen/body weight ratio after LPS. The class given is in vivo. The settings on record: even lower than that of the Control group. The protocol:
The fur color, consciousness, physical activity, diet, etc. of the mice were observed, and the heart, liver, spleen, lung and kidney of the mice were weighed 6 hours after intraperitoneal injection of LPS.

For data set [2] the following is noted: under certain conditions in vitro; cited from earlier work.
In another data set the test system is septic lung tissues. Kind of data set: acute lung injury caused by sepsis (lung tissue, blood oxygen saturation). In kind it is in vivo. The settings on record: septic mice.
The conditions of data set [3]: dose of 5 mg/kg for adults; cited from earlier work.
The subject of data set [4] is LPS-induced lung injury mice. Description: lung function by whole body plethysmography (Penh, EF50, TV). In kind it is in vivo. The protocol:
The lung function of each group of mice was measured at 6 h. Mice were placed in a closed chamber of a whole body plethysmograph (BUXCO, USA), and the plethysmographic chamber was connected to a sensor. […] In this experiment, we used Buxco's pulmonary function testing system to measure and record the 50% tidal expiratory volume, tidal volume, and changes in airway responsiveness in each group of mice by whole body plethysmography to assess lung function. This method offers a real-time lung function of mice under non-invasive conditions. Penh is a pulmonary function parameter related to airway resistance and intrapleural pressure, and Penh is used as an index to evaluate airway response.

For data set [5], the system named is macrophage M1 and M2 in cardiac tissue. Kind of data set: ROS and M1/M2 macrophages in heart of septic mice. In kind it is in vivo.
For data set [6], the system named is LPS-induced septic Balb/C mice. Description: mortality of LPS-induced septic Balb/C mice after intraperitoneal compound A. In kind it is in vivo. The settings on record: for improved the survival rate of mice: P<0.01. The method, then: This example mainly observes the effect of intraperitoneal injection of different doses of Compound A on the mortality of LPS-septic Balb/C mice.
To observe the effect of intraperitoneal injection of different doses of compound A on the mortality of LPS-induced sepsis mice.
The mice were randomly divided into 6 groups: • (1) Control group: intraperitoneal injection of physiological saline (solvent) (0.1 ml/10 g) once a day for three consecutive days, 1 hour after intraperitoneal injection on the third day, intraperitoneal injection of physiological saline (0.2 ml/10 g); • (2) LPS group: intraperitoneal injection of saline (0.1 ml/10 g), 1 time/d for 3 consecutive days, 1 hour after intraperitoneal injection on the third day, intraperitoneal injection of LPS (20 mg/kg, 0.1 ml/10 g). • (3) Compound A (5 mg/kg)+LPS group: intraperitoneal injection of compound A (5 mg/kg, 0.1 ml/10 g), 1 time/d for 3 consecutive days, 1 hour after intraperitoneal injection on the third day, intraperitoneal injection LPS (20 mg/kg, 0.1 ml/10 g). • (4) Compound A (10 mg/kg)+LPS group: intraperitoneal injection of compound A (10 mg/kg, 0.1 ml/10 g), 1 time/d for 3 consecutive days, 1 hour after intraperitoneal injection on the third day, intraperitoneal injection LPS (20 mg/kg, 0.1 ml/10 g). • (5) Compound A (20 mg/kg)+LPS group: intraperitoneal injection of compound A (20 mg/kg, 0.1 ml/10 g), 1 time/d for 3 consecutive days, 1 hour after intraperitoneal injection on the third day, intraperitoneal injection LPS (20 mg/kg, 0.1 ml/10 g). • (6) Compound A (60 mg/kg)+LPS group: intraperitoneal injection of compound A (60 mg/kg, 0.1 ml/10 g), 1 time/d for 3 consecutive days, 1 hour after intraperitoneal injection on the third day, intraperitoneal injection LPS (20 mg/kg, 0.1 ml/10 g).
After intraperitoneal injection of LPS, the survival of mice in each group was observed every 12 h for six consecutive days.
Based on the previously reports, the dose of 5 mg/kg for adults is an acceptable and safe dose, and the maximum blood concentration reaches 20 μM, which is equivalent to 45 mg/kg in mice. Accordingly, 10 mg/kg STV-Na was employed for further studies.

Data set [7] concerns LPS-induced septic mice. Description: liver function of LPS-induced septic mice (plasma ALT, AST, SOD, histopathology). In kind it is in vivo. An excerpt:
The prepared plasma of each group was taken to determine the levels of alanine aminotransferase (ALT), aspartate aminotransferase (AST) and superoxide dismutase (SOD) in plasma by a microplate reader according to the manufacture's instruction.

For the next data set, the system named is mitochondria. Description: mitochondrial protection during sepsis. The settings on record: administration during sepsis.
The next data set relates to TNF-α, IL-6 and IL-1β. Description: pro-inflammatory cytokine expression in plasma of septic mice. In kind it is in vivo. The settings on record: 6 h after intraperitoneal injection of LPS; different doses.
Data set [8] concerns primary peritoneal macrophages. Kind of data set: flow cytometry of M1/M2 primary peritoneal macrophages of LPS induced septic mice. The class given is in vivo. The settings on record: 6 hours after 20 mg/kg LPS i.p., versus LPS group. The protocol:
This example illustrates the effect of compound A on macrophage polarization. • (1) Grouping of experimental animals: 6-8 week old Balb/c male mice were randomly divided into 4 groups after one week of adaptive feeding, 10 mice in each group, namely the Control group, the LPS group, the compound A group and the dexamethasone group. The LPS group, compound A group and dexamethasone group were given intraperitoneally injection of a 20 mg/kg of LPS. […]

Data set [9] has as its system white blood cells, neutrophils and monocytes. Kind of data set: white blood cells, neutrophils and monocytes in LPS induced septic mice. In kind it is in vivo. The settings on record: versus LPS group.
Data set [10] deals with lactate dehydrogenase (LDH) and creatine kinase (CK) in plasma. Description: plasma myocardial injury indexes LDH and CK. In kind it is in vivo. The settings on record: LPS-induced septic mice, versus LPS group, p<0.01. The method, then:
Serum lactate dehydrogenase (LDH) and creatine kinase (CK) were determined according to the istructions provided by Nanjing Jiancheng Biotechnology Co., Ltd.

The next data set is described as follows: solubility. In kind it is physicochemical. The settings on record: sodium salt versus compound A.
A further data set has as its system HIF-1α. Description: HIF-1α expression after LPS and macrophage regulation.
The subject of data set [11] is LPS-induced septic mice. Description: renal function of LPS-induced septic mice (plasma BUN, Crea, histopathology). In kind it is in vivo. An excerpt:
The prepared plasma of each group was taken to determine the levels of urea nitrogen (BUN) and creatinine (Crea) in plasma by a microplate reader following the manufacture's instruction.

Data set [12] concerns LPS-induced septic mice. Description: cardiac function of LPS-induced septic mice by echocardiography (Vevo2100). The settings on record: for ejection fraction (EF) / fractional shortening (FS): 6 h after i.p. LPS, versus LPS group. In kind it is in vivo. An excerpt:
Six hours after intraperitoneal injection of LPS, mice in each group were weighed and anesthetized, and the cardiac function of the mice was detected by Vevo2100 imaging system. The mice were put into the recumbent position and fixed on a constant temperature heating plate under heart rate of 400-500 times per minute. The limbs were fixed on the four metal poles with tape. The ultrasound probe was placed in the left thoracic region of the mouse, and the short axis of the parasternal left ventricle was obtained by 2D ultrasound. The left ventricular motion was recorded at the papillary muscle level by M-ultrasound, and heart rate (HR), left ventricular systolic diameter (LVID: FS), left ventricular diastolic diameter (LVID: d), left ventricular systolic diameter (LVID: FS), left ventricular diastolic diameter (LVID: Fd), and left ventricular diastolic […] thickness (LVPWF: FdF) were measured. Using Vevo2100 small animal ultrasound system software to process and analyze the acquired images. Determination of mouse plasma myocardial injury indexes (LDH and CK)
Ejection Fractions (EF), refers to the percentage of cardiac stroke volume in ventricular end-diastolic volume, which is an indicator of myocardial contractility. […] The left ventricular short-axis shortening rate (fractional shortening, FS) refers to the ratio of the inner diameter of the ventricle at the end systole to the inner diameter of the ventricular end diastole, and also reflects the systolic function of the heart (FS=(left ventricular end-diastolic diameter (LVDd)−Left ventricular end-systolic diameter (LVDs))/left ventricular end-diastolic diameter×100%).

For data set [13], the system named is Animals that survived sepsis. Kind of data set: fibrosis of affected organs after recovery from sepsis. The class given is in vivo.
The mark [14] stands for this setting: 6 hours after LPS injection, versus LPS group, p<0.01.
The mark [15] stands for this setting: pretreated septic mice versus LPS group.

In the case of `C[C@@H]1C[C@H]2[C@@H]3CCC4=CC(=O)C=C[C@]4(C)[C@@]3(F)[C@@H](O)C[C@]2(C)[C@@]1(O)C(=O)CO` [dexamethasone], in the data set on LPS-induced septic mice [1], the spleen/body weight ratio entry was “significantly reduced”.
In the case of `C=C1C[C@@]23CC[C@H]4[C@@](C)(CCC[C@@]4(C)C(=O)O)[C@@H]2CC[C@]1(O)C3` [Compound B, ENT13Hyrdoxyaur-16-EN-18-Oic acid], the mutagenicity result in [2] was “mutagenic”.
As for `C[C@@]12CC[C@@H]3[C@@](CC[C@H]4[C@@]3(C)CCC[C@@]4(C)C(=O)O)(CC1=O)C2` [Compound A, (4α, 8β, 13 β)-13-METHYL-16-OXO-17-Norkauran-18-OIC acid], in the data set with septic lung tissues, the blood oxygen saturation result is “significantly increased”; the “lung function / acute lung injury and failure caused by sepsis” value was “significantly recovered”; the lung inflammation entry is recorded as “significantly reduced”; the lung tissue structure result is given as “basically normal”. Further, the maximum blood concentration in data set [3] was 20 µM. In addition, in data set [4] (setting [14]), the “EF50 (expiratory flow at 50% tidal volume)” value is listed as “significantly higher” and the “TV (tidal volume)” value is given as “significantly higher”. In addition, the “airway reactivity (Penh)” value in [4] (septic mice) is “returned to normal”. The “level of ROS in heart” value in data set [5] is recorded as “inhibited”. Moreover, the “biomarkers of M1 and M2 macrophages and number of macrophages in cardiac tissue” value in [5] (M1: IL-1β, McP1, CD11c, M2: Ym1, CD206) is given as “significantly decreased”. For the same molecule, the survival of mice result in data set [6] (5 mg/kg i.p. 1 time/d for 3 days, then LPS 20 mg/kg i.p., no significant difference with the LPS group (p>0.05)) was “all mice in the 5 mg/kg compound A group died”. The “improved the survival rate of mice” value in [6] (10 mg/kg i.p. 1 time/d for 3 days, then LPS 20 mg/kg i.p.) was found to be 52%. In data set [6] (20 mg/kg i.p. 1 time/d for 3 days, then LPS 20 mg/kg i.p.), the “improved the survival rate of mice” value was found to be 67%. Moreover, the “survival rate of mice” value in data set [6] (10-20 mg/kg, large dose of LPS i.p., up to more than two-thirds surviving) is on record as “significantly improved”. Moreover, in the data set with LPS-induced septic mice [7] (LPS-induced septic mice), the “alanine aminotransferase (ALT) in plasma” value is reported as “significantly decreased”, the “aspartate aminotransferase (AST) in plasma” value is on record as “significantly decreased” and the “superoxide dismutase (SOD) in plasma” value is recorded as “significantly decreased”. For the same molecule, in the data set on LPS-induced septic mice [7] (septic animals), the “infiltration of inflammatory cells in liver (histopathological staining)” value was “reduced”. Besides, in the data set on mitochondria, the “cytochrome C release” value is listed as “reduce”; the “inflammation cytokine TNF-α and IL-1β” value is on record as “inhibiting”; the mitochondrial membrane potential entry is recorded as “increase”; the number of mitochondria entry is “increase”. Besides, the “production of superoxide such as NO in cells” value in the data set on mitochondria was “reduce”. For the same molecule, the “TNF-α, IL-1β and IL-6 in plasma” value with TNF-α, IL-6 and IL-1β is “dose-dependently decreased”. Further, in data set [8], the “M1 peritoneal macrophages (F4/80+CD11c+ CD206−)” value is recorded as “significantly inhibit; also recorded: significantly reduced” and the “M2 peritoneal macrophages (F4/80+CD11c− CD206+)” value is given as “significantly inhibit; also recorded: significantly reduced”. Further, the “level of white blood cells, neutrophils and monocytes” value in [9] is “significantly reduced”. Also, in data set [10], the “CK level in plasma” value is listed as “significantly decreased” and the “LDH level in plasma” value is “downward trend”. The “LDH level in plasma” value in data set [10] (listed as STV-Na) is on record as “significantly decreased”. The solubility entry in “solubility” is “better solubility”. Besides, the HIF-1α expression result with HIF-1α (after LPS injection) is recorded as “reduced”. Besides, in the data set on HIF-1α (with DMOG, a competitive inhibitor of HIF-1α prolyl hydroxylase), the “metabolic regulation effect on macrophages” value is “abolished”. In the data set with LPS-induced septic mice [11] (LPS-induced septic mice), the “creatinine (Crea) in plasma” value is “significantly reduced” and the “urea nitrogen (BUN) in plasma” value is given as “significantly decreased”. In addition, the “urea nitrogen (BUN) in plasma” value with LPS-induced septic mice [11] (LPS-induced septic mice, listed as compound A) is recorded as “significantly reduced”. Moreover, in the data set with LPS-induced septic mice [11] (septic animals), the “lesions in the glomerulus and renal tubules (histopathological staining)” value was “milder than those in the model group”. For the same molecule, in the data set with LPS-induced septic mice [12], the “ejection fraction (EF)” value was “significantly improved” and the “fractional shortening (FS)” value is given as “significantly higher”. In the data set with LPS-induced septic mice [12] (listed as STV-Na), the “ejection fraction (EF)” value is reported as “markedly increased” and the “fractional shortening (FS)” value was “markedly increased”. Also, in the data set on LPS-induced septic mice [12] (setting [15]), the CO result was “markedly increased” and the SV entry was “markedly increased”. Besides, the “fibrosis and collagen deposition in the lungs, heart, liver, and kidney” value in [13] is on record as “marked reduction”.

(Values after US20230103774A1, “USE OF KAURANE COMPOUNDS IN PREPARATION OF DRUG FOR PREVENTION AND TREATMENT OF SEPSIS AND MULTIPLE ORGAN DAMAGE” (KEY-PHARMA BIOMEDICAL INC., priority 2020, published 2023).)
